From patent US8022056B2, “Compositions and methods for the treatment of cancer” (Tautatis, Inc, priority 2006, dated 2011)
Several values for one entry are separate records, joined by “and”; a condition that tells them apart may be missing. Equal entries are not always repeated.

Tests used:
CDK1 = CDK1 (Homo sapiens, UniProt P06493); test: Kinase inhibition under standard conditions, CDK1; type: biochemical
PKC = test: Kinase inhibition under standard conditions, PKC; type: biochemical
[1] = test system: MDA-MB-231 breast cancer cell line; test: Long-term growth inhibition, crystal violet staining; type: cell-based, human
Experimental: The human estrogen receptor and EGF receptor negative MDA-MB-231 (HTB 26) breast cancer cell line (obtained from ATCC, Rockville, USA) were cultured in McCoy's 5A medium containing L-glutamine, 2.2 g/l NaHCO3 and 5% fetal calf serum. Cells were maintained in a water saturated atmosphere (95% air/5% carbon dioxide) at 37° C. in 75-cm^2 culture flasks, and were serially passaged following trypsinization using 0.05% trypsin/0.02% EDTA.
(§1) For proliferation assays tumor cell suspensions (100 μl/well) were seeded into 96-well flat bottomed microtitration plates at a density of ca. 15 cells/microscopic field (magnification 320×). After 2-3 days the culture medium was removed by suction and replaced by fresh medium (200 μl/well) containing varying concentrations of the compound of the formula 1 or vehicle (0.5% DMSO). Compound 1 was added as […] concentrated feed solutions. On every plate 16 wells served as controls and 16 wells were used per concentration of 1. After various times of incubation the cells were fixed with glutardialdehyde and stored in a refrigerator. At the end of the assay all plates were processed simultaneously (staining with 0.02% aqueous crystal violet solution (100 μl/well). Excess dye was removed by rinsing the trays with water for 20 min. The stain bound by the cells was redissolved in 70% ethanol (180 μl/well) while shaking the microplates for about 3 hours. Absorbance (proportional to cell mass) was measured at 578 nm using a BIOTEK 309 Autoreader. The results (mean values±standard deviation) were plotted as growth curves.

[2] = test system: HT29 colon cancer cell line; test: as above; type: cell-based, human; details: 10 nM
Experimental: as §1
The HT29 human colon cancer cell line (obtained from ATCC, Rockville, USA) was cultured as above. Treatment with the compound of the formula 1 and analysis of growth inhibition was performed analogous to Example 3.

HT29 xenograft = test: Mouse xenograft model HT29; type: in vivo
Experimental: The efficacy of the compound of the formula 1 was confirmed in mouse tumor xenograft models, employing the NMRI(nu/nu) strain of mice. For example, cells from the human tumor cell lines MDA-MB-231, U373, and HT29 were pre-incubated subcutaneously in several nude mice to select for the most robustly growing cell population. After having grown to a sufficient size after 2-3 weeks, a piece of about 2 mm^3 volume of the most suitable tumor was transplanted subcutaneously into the region of the thoracic mammary fat pads, an area ensuring a high degree of vascularization of the grafted tissue. When tumors reached a diameter of about 3 mm mice were assigned to treatment groups with about equal average tumor sizes, and therapy was started. Application of the compound of the formula 1 was performed preferably by oral gavage twice daily for continuous exposure, with doses between 1 and 10 mg/kg of the compound of the formula 1 as a solid suspension in water, or in aqueous liquid formulations containing common adjuvants, like polyethylene glycols (PEG), preferentially in form of a salt with a physiologically applicable acid, including but not limited to hydrochloric acid, phosphoric acid, lactic acid, malonic acid, citric acid, etc. Other suitable adjuvants include but are not limited to polyvinyl pyrrolidone (Povidone) of varying average molecular weights. During the course of the treatment, the weight of the animals and the size of the transplanted tumor was monitored three times a week. For maximum efficacy, a daily treatment regimen was chosen at the maximally applicable dose, as defined by the absence of significant weight loss over the course of the treatment. These doses are best determined separately for each individual mouse strain employed.
To establish a solid tumour 3×10^6 tumor cells suspended in 100 μl of serum free medium (RPMI) were inoculated subcutaneously into the region of the thoracic mammary fat pads of 5 Male NMRI(nu/nu) mice of 8-10 weeks of age. After 3-4 weeks tumor bearing mice were killed by cervical dislocation and the tumor of one selected donor mouse was excised under sterile conditions. Vital tumor regions were cut into 2 mm^3 pieces, picked up by a trocar (13 ga), and transplanted subcutaneously into NMRI(nu/nu) of the same stock. The tumor grade of the transplanted tissue was checked by routine histopathology (HE staining). Tumor growth and body weight were registered weekly during tumor establishment. When subcutaneous tumors reached diameters of about 3 mm the animals were randomly assigned to a treatment and a vehicle control group, each consisting of 10-12 animals, and a therapeutic regimen was started comprising twice daily applications by oral gavage of 2.5 mg/kg of compound 1 in a vehicle of 50 mM (−)-lactic acid in 50% polyethylene glycol 400. During the course of the treatment body weight changes and tumor growth were recorded three times a week. Growth curves were plotted together with standard deviations and the significance of differences was determined using an unpaired t-test in FIG. 11. In untreated mice tumor areas had grown after 9 days by about 150%, while in the treated group average tumor areas had grown only by about 50% (P=0.012).

OVCAR-3 xenograft = test: Mouse xenograft model OVCAR-3; type: in vivo; details: Ovarian, p53; oral twice daily dosing
Experimental: (§2) The efficacy of the compound of the formula 1 was confirmed in mouse tumor xenograft models, employing the NMRI(nu/nu) strain of mice. For example, cells from the human tumor cell lines MDA-MB-231, U373, and HT29 were pre-incubated subcutaneously in several nude mice to select for the most robustly growing cell population. After having grown to a sufficient size after 2-3 weeks, a piece of about 2 mm^3 volume of the most suitable tumor was transplanted subcutaneously into the region of the thoracic mammary fat pads, an area ensuring a high degree of vascularization of the grafted tissue. […] During the course of the treatment, the weight of the animals and the size of the transplanted tumor was monitored three times a week. […] These doses are best determined separately for each individual mouse strain employed.
(§3) To establish a solid tumour 3×10^6 tumor cells suspended in 100 μl of serum free medium (RPMI) were inoculated subcutaneously into the region of the thoracic mammary fat pads of 5 Male NMRI(nu/nu) mice of 8-10 weeks of age. […] During the course of the treatment body weight changes and tumor growth were recorded three times a week. Growth curves were plotted together with standard deviations and the significance of differences was determined using an unpaired t-test in FIG. 11. […]

ACHN xenograft = test: Mouse xenograft model ACHN; type: in vivo; details: Kidney, CDKN2A; oral twice daily dosing
Experimental: as §2, §3

[3] = molecular target: T1, ABC-G2 (breast cancer resistance protein BCRP) (Homo sapiens, UniProt Q9UNQ0); test: Competition with efflux of mitoxandrone in MCF-7 cells (FACS); type: cell-based
T1 construct: endogenous in cells; host or cells: MCF-7 cells
Excerpt: FIG. 6 compares the recognition of compound 1 and of the compound 6 by two frequently involved multi-drug resistance proteins ABC-B1 (glycoprotein gp170) (A), and ABC-G2 (breast cancer resistance protein BCRP) (B). Measurements were based on competition with the MDR-driven efflux of calcein-AM in Kb-V1 cells expressing high levels of gp170, or competition with the efflux of mitoxandrone in MCF-7 cells by the respective compounds within their effective concentration range. Uptake of fluorescent reporter compounds by competition with 1 or 6 was assessed by FACS as described in Mueller et al., Cancer Chemother. Pharmacol. 59, 157-164 (2007).

[4] = Colon, Raf/PI3K/p53/APC, 2.5 mg/kg p.o. twice daily, 30 days

Sequence of CDK1 (P06493 whole entry, species assumed): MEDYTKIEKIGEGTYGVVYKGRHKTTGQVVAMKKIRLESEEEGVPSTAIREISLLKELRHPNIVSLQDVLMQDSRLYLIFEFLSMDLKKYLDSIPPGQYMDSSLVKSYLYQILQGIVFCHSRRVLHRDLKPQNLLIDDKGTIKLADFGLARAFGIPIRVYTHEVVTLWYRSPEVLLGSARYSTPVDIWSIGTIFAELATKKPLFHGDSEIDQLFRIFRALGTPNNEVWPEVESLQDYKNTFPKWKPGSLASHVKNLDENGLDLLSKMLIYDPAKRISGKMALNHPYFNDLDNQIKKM
Sequence of CDK1 (P14635 whole entry partner, species assumed): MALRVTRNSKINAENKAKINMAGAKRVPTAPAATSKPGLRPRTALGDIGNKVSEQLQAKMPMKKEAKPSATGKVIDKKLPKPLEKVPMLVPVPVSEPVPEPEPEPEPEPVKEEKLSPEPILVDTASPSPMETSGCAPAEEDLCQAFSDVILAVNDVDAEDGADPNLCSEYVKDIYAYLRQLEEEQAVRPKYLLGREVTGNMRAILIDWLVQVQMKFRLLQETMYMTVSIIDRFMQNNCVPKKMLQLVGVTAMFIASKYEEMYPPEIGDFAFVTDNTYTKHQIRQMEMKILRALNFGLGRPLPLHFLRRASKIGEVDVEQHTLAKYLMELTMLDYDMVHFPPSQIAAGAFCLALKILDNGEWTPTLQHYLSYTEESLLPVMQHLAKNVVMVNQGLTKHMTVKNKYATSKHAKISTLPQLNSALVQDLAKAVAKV
T1 sequence (Q9UNQ0 whole entry): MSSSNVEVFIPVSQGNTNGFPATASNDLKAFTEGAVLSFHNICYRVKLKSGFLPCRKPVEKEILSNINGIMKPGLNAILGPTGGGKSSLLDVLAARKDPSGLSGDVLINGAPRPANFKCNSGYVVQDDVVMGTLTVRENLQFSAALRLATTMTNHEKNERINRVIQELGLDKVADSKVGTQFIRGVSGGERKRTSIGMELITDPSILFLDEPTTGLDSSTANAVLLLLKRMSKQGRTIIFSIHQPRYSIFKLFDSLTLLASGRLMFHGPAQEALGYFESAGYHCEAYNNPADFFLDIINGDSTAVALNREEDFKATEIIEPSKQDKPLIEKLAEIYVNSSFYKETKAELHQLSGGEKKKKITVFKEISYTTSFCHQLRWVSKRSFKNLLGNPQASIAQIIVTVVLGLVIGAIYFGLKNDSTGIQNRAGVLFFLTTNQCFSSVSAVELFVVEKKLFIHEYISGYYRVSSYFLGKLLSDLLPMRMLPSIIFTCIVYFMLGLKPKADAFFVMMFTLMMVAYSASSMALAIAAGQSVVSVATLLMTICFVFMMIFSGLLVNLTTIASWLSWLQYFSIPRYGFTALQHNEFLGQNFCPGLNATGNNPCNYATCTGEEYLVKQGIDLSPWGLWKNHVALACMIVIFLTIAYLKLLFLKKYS

## CNC(=O)[C@@]1(N)C[C@H]2O[C@]1(C)n1c3ccccc3c3c4c(c5c6ccccc6n2c5c31)C(=O)NC4 [Compound 1]
CDK1
  IC50: 43 nM
PKC
  IC50: 1280 nM
[1]; 10 nM, 1 week of exposure
  growth of MDA-MB-231 cells: almost completely prevents the growth
[1]; MDA-MB-231, single exposure 1 to 6 hrs, 100 nM
  prolonged effect on growth after a single short exposure: sustained inhibition over at least one week
[1]; MDA-MB-231 growth
  anti-tumor activity compared with cis-platin: substantially more potent and efficacious
  anti-tumor activity compared with vinblastine: matches the activity of vinblastine
[2]
  proliferation of HT29 cells: sufficient to block the proliferation
HT29 xenograft; 30 days of continuous treatment, all 11 animals
  signs of organ toxicity in heart, lung, kidney, liver, duodenum, and colon: complete absence of any signs of organ toxicity
HT29 xenograft; 30 days, 2.5 mg/kg p.o. twice daily
  effect on body weight: absence of any significant effect on body weight
HT29 xenograft; 30 days, oral route
  irritation in the mucosal layers of duodenum and colon tissues: absence of any signs of irritation
HT29 xenograft; [4]
  Mean % Inhibition: 70%
  N tumors with no/neg. growth: 2 out of 10 and 2 of 11
HT29 xenograft; after 9 days, 2.5 mg/kg p.o. twice daily
  growth of average tumor areas in treated group: about 50%
OVCAR-3 xenograft
  Mean % Inhibition: 78%
  N tumors with no/neg. growth: 4 of 11
ACHN xenograft
  Mean % Inhibition: 86%
  N tumors with no/neg. growth: 5 of 10
[3]
  separation of anti-proliferative potency range from uptake concentration for efflux transporter, versus compound 6: more clearly separated
